Reference: patent publication US8629173B2, “Solid forms comprising (+)-2-[1-(3-ethoxy-4-methoxyphenyl)-2-methylsulfonylethyl]-4-acetylaminoisoindoline-1,3-dione, compositions thereof, and uses thereof” (Celgene Corporation, priority 2002, dated 2014)
Converted amounts (≈) assume the structure as drawn.

Assays:
[1] = target: human PDE2 (Homo sapiens, UniProt O00408); assay: PDE2 enzyme assay; type: biochemical
[2] = test system: moderate to severe plaque-type psoriasis; assay: Phase 2 randomized placebo-controlled study in moderate-to-severe psoriasis; type: in vivo, human
Description: This phase 2, multicenter, randomized, double-blind, placebo-controlled, parallel-group, dose-comparison study evaluated the efficacy and safety of Compound A in subjects with moderate to severe plaque-type psoriasis who were candidates for systemic therapy. This study included a 12-week treatment phase followed by a 4-week observational follow-up phase. A total of 260 subjects were randomized to receive Compound A 20 mg BID, Compound A 20 mg QD, or placebo for 12 weeks. The primary endpoint for this study was the proportion of subjects treated with Compound A who achieved a 75% reduction in Psoriasis Area and Severity Index score (“PASI-75”) at week 12/last treatment in reference to the baseline visit. Last treatment is defined as the last PASI assessment completed during the 12-week treatment phase.

[3] = test system: IL-1β-induced TNF-α production from human PBMC; assay: IL-1β-induced TNF-α production from human PBMC; type: cell-based; conditions: 18 h, read-out: IL-β-induced TNF-α IC50
Description: During the course of inflammatory diseases, TNF-α production is often stimulated by the cytokine IL-1β, rather than by bacterially derived LPS. Compounds were tested for the ability to inhibit IL-1β-induced TNF-α production from human PBMC as described above for LPS-induced TNF-α production, except that the PBMC were isolated from source leukocyte units (Sera-Tec Biologicals, North Brunswick, N.J., USA) by centrifugation on Ficoll-Paque Plus (Amersham Pharmacia, Piscataway, N.J., USA), plated in 96-well tissue culture plates at 3×10^5 cells/well in RPMI-1640 medium (BioWhittaker, Walkersville, Md., USA) containing 10% heat-inactivated fetal bovine serum (Hyclone), 2 mM L-glutamine, 100 U/ml penicillin, and […] (complete medium), pretreated with compounds at 10, 2, 0.4, 0.08, 0.016, 0.0032, 0.00064, and 0 μM in duplicate at a final DMSO concentration of 0.1% at 37° C. in a humidified incubator at 5% CO2 for one hour, then stimulated with 50 ng/ml recombinant human IL-1β (Endogen) for 18 hours.

[4] = test system: CD11b expression on neutrophils; assay: fMLF-induced CD11b expression on neutrophils; type: cell-based; conditions: Neutrophil; human neutrophils, 30 nM fMLF
Description: CD18/CD11b (Mac-1) expression on neutrophils was measured as previously described (Derian et al., 1995, J. Immunol., 154:308-3 17) with the following modifications. Neutrophils were isolated as described above, then resuspended in complete medium at 1×10^6 cells/ml, pretreated with compounds at 10, 1, 0.1, 0.01, and 0 μM in duplicate at a final DMSO concentration of 0.1% for 10 minutes at 37° C. 5% CO2. Cells were then stimulated with 30 nM fMLF for 30 minutes and then chilled to 4° C. Cells were treated with rabbit IgG (Jackson ImmunoResearch Labs, West Grove, Pa., USA) (10 μg/1×10^6 cells) to block Fc receptors, stained with CD18-FITC and CD11b-PE (Becton Dickinson), and analyzed by flow cytometry on a FACSCalibur. CD18/CD11b expression (mean fluorescence) in the absence of stimulation was subtracted from all samples to obtain inhibition curves and calculate IC50 values.

[5] = target: PDE7 purified from Hut78 human T cells (Homo sapiens, UniProt Q13946); assay: PDE7 enzyme assay; type: biochemical; conditions: 10 nM cAMP
Description: PDE7 is a cAMP-selective PDE expressed mainly in T cells and in skeletal muscle. T cell-derived cytokines such as IL-2 and IFN-γ are potentially regulatable via PDE7 inhibition. […] Compounds were tested against the PDE7 preparation in the presence of 10 nM cAMP as described for PDE4 in Table 1.

[6] = physchem; conditions: pH 7.4, aqueous buffer, thermodynamic from solid
[7] = test system: LPS-induced TNF-α production from human PBMC; assay: LPS-induced TNF-α production from human PBMC; type: cell-based; conditions: LPS 100 ng/ml, 18-20 hours
Description: Lipopolysaccharide (LPS) is an endotoxin produced by gram-negative bacteria such as E. coli which induces production of many pro-inflammatory cytokines, including TNF-α. In peripheral blood mononuclear cells (PBMC), the TNF-α produced in response to LPS is derived from monocytes, which comprise approximately 5-20% of the total PBMC. Compounds were tested for the ability to inhibit LPS-induced TNF-α production from human PBMC as previously described (Muller et al., 1996, J. Med. Chem., 39:3238). PBMC from normal donors were obtained by Ficoll Hypaque (Pharmacia, Piscataway, N.J., USA) density centrifugation. Cells were cultured in RPMI (Life Technologies, Grand Island, N.Y., USA) supplemented with 10% AB±human serum (Gemini Bio-products, Woodland, Calif., USA), 2 mM L-glutamine, 100 U/ml penicillin, and 100 μg/ml streptomycin (Life Technologies).
PBMC (2×10^5 cells) were plated in 96-well flat-bottom Costar tissue culture plates (Corning, N.Y., USA) in triplicate. Cells were stimulated with LPS (Sigma, St. Louis, Mo., USA) at 100 ng/ml in the absence or presence of compounds. Compounds (Celgene Corp., Warren, N.J., USA) were dissolved in DMSO (Sigma) and further dilutions were done in culture medium immediately before use. The final DMSO concentration in all samples was 0.25%. Compounds were added to cells one hour before LPS stimulation. […]

[8] = 20 mg BID, week 12/last treatment

Sequence of human PDE2 (O00408 whole entry): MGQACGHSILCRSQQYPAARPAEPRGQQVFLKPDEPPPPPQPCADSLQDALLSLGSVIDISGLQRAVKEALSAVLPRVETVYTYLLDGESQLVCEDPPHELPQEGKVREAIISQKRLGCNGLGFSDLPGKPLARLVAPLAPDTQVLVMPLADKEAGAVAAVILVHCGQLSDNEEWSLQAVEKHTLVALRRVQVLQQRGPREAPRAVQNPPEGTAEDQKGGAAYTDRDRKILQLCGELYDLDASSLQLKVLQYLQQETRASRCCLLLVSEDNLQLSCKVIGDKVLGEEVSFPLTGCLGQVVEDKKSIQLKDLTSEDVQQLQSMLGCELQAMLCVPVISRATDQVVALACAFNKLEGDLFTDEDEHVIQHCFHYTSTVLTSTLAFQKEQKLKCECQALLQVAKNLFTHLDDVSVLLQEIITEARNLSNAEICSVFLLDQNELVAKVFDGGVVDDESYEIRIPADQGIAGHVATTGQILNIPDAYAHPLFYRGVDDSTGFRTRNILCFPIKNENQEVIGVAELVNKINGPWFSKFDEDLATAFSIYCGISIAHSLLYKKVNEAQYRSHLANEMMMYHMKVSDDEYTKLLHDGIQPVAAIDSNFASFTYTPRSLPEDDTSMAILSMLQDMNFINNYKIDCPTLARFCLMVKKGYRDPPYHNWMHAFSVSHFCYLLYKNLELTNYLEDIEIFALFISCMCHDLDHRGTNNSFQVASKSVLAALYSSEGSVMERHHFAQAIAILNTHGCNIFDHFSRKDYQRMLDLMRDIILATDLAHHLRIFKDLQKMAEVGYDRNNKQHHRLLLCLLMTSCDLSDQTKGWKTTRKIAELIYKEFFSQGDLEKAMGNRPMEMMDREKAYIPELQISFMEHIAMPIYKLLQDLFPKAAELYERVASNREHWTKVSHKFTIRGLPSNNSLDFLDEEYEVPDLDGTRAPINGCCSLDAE
Sequence of PDE7 purified from Hut78 human T cells (Q13946 whole entry): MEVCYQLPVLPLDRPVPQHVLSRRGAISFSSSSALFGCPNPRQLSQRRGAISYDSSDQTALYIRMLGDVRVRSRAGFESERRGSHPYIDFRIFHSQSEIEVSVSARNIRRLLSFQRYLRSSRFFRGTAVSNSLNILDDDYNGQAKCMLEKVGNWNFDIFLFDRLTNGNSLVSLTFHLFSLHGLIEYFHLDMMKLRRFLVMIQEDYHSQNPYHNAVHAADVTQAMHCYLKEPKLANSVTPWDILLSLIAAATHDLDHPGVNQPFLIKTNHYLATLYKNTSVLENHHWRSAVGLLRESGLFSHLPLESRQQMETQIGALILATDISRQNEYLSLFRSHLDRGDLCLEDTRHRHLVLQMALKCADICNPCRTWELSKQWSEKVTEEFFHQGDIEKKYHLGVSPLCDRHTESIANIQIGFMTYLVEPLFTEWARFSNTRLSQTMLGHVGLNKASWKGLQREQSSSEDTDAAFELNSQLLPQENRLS

Which results are given for `CCOc1cc(C(CS(C)(=O)=O)N2C(=O)c3cccc(NC(C)=O)c3C2=O)ccc1OC` (single isomer, unassigned; (+)) [Compound A, (+)-2-[1-(3-ethoxy-4-methoxyphenyl)-2-methylsulfonylethyl]-4-acetylaminoisoindoline-1,3-dione]?
PDE Specificity Ratio PDE4/PDE2 ([1]; from Table 1 data): >10000 fold; inhibition at 10 µM ([1]; read-out: PDE2 (% inhib at 10 μM)): 6%; psoriasis flare during the observational follow-up period ([2]; 20 mg BID group, 4-week follow-up): No subjects; study drug-related serious adverse events ([2]; 20 mg BID or 20 mg QD, 12 weeks): No study drug-related serious adverse events; mean decrease in PASI from baseline [2, 8]: 52%; proportion of subjects achieving PASI-50 [2, 8]: 57%; proportion of subjects achieving PASI-90 [2, 8]: 14%; proportion of subjects achieving PASI-75 ([2]; 20 mg BID, week 12/last treatment, P=0.023 vs placebo): 24%; tolerability and safety ([2]; 12 weeks of treatment): well tolerated and safe; IC50 [3]: 83 nM; IC50 [4]: 74 nM; IC50 [5]: 20500 nM; solubility [6]: 12 µg/mL (≈ 26.1 µM); IC50 [7]: 77 nM
